Assay results reported in US9179679B2, “Synergistic herbicidal composition containing penoxsulam and flazasulfuron” (Dow AgroSciences LLC, priority 2010, dated 2015).

How the values were obtained:
Format in all cases: in vivo
[1] = system: black nightshade (Solanum nigrum, SOLNI); assay: Postemergence field trial #1, visual weed control in vines; conditions: France, 68 to 147 days after application, penoxsulam 7 and/or flazasulfuron 25 grams ai/ha; for SOLNI (2) Obs - percent control observed: Field trial #1, Echallat; for SOLNI (1) Obs - percent control observed: Field trial #1, Port A Binson
Description: (§1) These trials were conducted under field conditions in France. Trial sites were located in commercially grown vines of European grape (Vitis vinifera). The grapes were grown using normal cultural practices for fertilization, seeding, and maintenance to ensure good growth of the crop and the weeds. The trials were conducted using normal research methodology. Trial plots were between 2 to 4.5 meters (m) wide by 5.5 to 10 m long. All treatments were applied using a randomized complete block trial design with 3 or 4 replications per treatment. The trial sites had naturally occurring populations of weeds. The weed spectrum included, but was not limited to, black nightshade (Solanum nigrum, SOLNI), pigeongrass or foxtail millet (Setaria sp., SETSS), common lambsquarter (Chenopodium album, CHEAL), round-leaved cranesbill (Geranium rotundifolium, GERRT), common groundsel (Senecio vulgaris, SENVU), mallow (Malva L., MALSS) and common purslane (Portulaca oleracea, POROL).
(§2) Treatments consisted of tank mixes of an oil dispersion of penoxsulam and commercially available formulations of flazasulfuron (Katana herbicide, water dispersible granules) applied in water. The application volumes were between 150-325 liters per hectare (L/ha). All application were made using precision gas hand sprayers using a 2 or 3 m boom using flat fan (80° or 110°) nozzles to broadcast the treatments on the soil.
(§3) The treated plots and control plots were rated blind at various intervals after application. Ratings were based of Percent (%) Visual weed control, where 0 corresponds to no injury and 100 corresponds to complete kill.
(§4) Colby's equation was used to determine the herbicidal effects expected from the mixtures (Colby, S. R. Calculation of the synergistic and antagonistic response of herbicide combinations. Weeds 1967 15, 20-22).
(§5) The following equation was used to calculate the expected activity of mixtures containing two active ingredients, A and B: Expected=A+B−(A×B/100)
(§6) A=observed efficacy of active ingredient A at the same concentration as used in the mixture;
(§7) B=observed efficacy of active ingredient B at the same concentration as used in the mixture.

[2] = system: common lambsquarter (Chenopodium album, CHEAL); assay: as above; conditions: 68 to 147 days after application, penoxsulam 7 and/or flazasulfuron 25 grams ai/ha
Description: as §1, §2, §3, §4, §5, §6, §7

[3] = system: pigeongrass or foxtail millet (Setaria sp., SETSS); assay: as above; conditions: 68 to 147 days after application, penoxsulam 7 and/or flazasulfuron 25 grams ai/ha
Description: as §1, §2, §3, §4, §5, §6, §7

[4] = system: common groundsel (Senecio vulgaris, SENVU); assay: Postemergence field trial #2, visual weed control in vines; conditions: 118 to 158 days after application, penoxsulam 7 and/or flazasulfuron 25 grams ai/ha
Description: as §1, §2, §3, §4, §5, §6, §7

[5] = system: common purslane (Portulaca oleracea, POROL); assay: as above; conditions: 118 to 158 days after application, penoxsulam 7 and/or flazasulfuron 25 grams ai/ha
Description: as §1, §2, §3, §4, §5, §6, §7

mallow (Malva L., MALSS) = assay: as above; conditions: 118 to 158 days after application, penoxsulam 7 and/or flazasulfuron 25 grams ai/ha
Description: as §1, §2, §3, §4, §5, §6, §7

[6] = system: round-leaved cranesbill (Geranium rotundifolium, GERRT); assay: as above; conditions: 118 to 158 days after application, penoxsulam 7 and/or flazasulfuron 25 grams ai/ha
Description: as §1, §2, §3, §4, §5, §6, §7

[7] = system: black nightshade (Solanum nigrum, SOLNI); assay: Postemergence field trial #3, visual weed control in vines; conditions: 83 to 158 days after application, penoxsulam 7 and/or flazasulfuron 25 grams ai/ha
Description: as §1, §2, §3, §4, §5, §6, §7

[8] = system: common groundsel (Senecio vulgaris, SENVU); assay: as above; conditions: 83 to 158 days after application, penoxsulam 7 and/or flazasulfuron 25 grams ai/ha
Description: as §1, §2, §3, §4, §5, §6, §7

[9] = system: common purslane (Portulaca oleracea, POROL); assay: as above; conditions: 83 to 158 days after application, penoxsulam 7 and/or flazasulfuron 25 grams ai/ha
Description: as §1, §2, §3, §4, §5, §6, §7

[10] = system: round-leaved cranesbill (Geranium rotundifolium, GERRT); assay: as above; conditions: 83 to 158 days after application, penoxsulam 7 and/or flazasulfuron 25 grams ai/ha
Description: as §1, §2, §3, §4, §5, §6, §7

Row | Compound | SOLNI (2) Obs - percent control observed [1] | SOLNI (1) Obs - percent control observed [1] | CHEAL Obs - percent control observed [2] | SETSS Obs - percent control observed [3] | SENVU Obs - percent control observed [4] | POROL Obs - percent control observed [5] | MALSS Obs - percent control observed (mallow (Malva L., MALSS)) | GERRT Obs - percent control observed [6] | SOLNI Obs - percent control observed [7] | SENVU Obs - percent control observed [8] | POROL Obs - percent control observed [9] | GERRT Obs - percent control observed [10]
1 | COc1cc(OC)nc(NC(=O)NS(=O)(=O)c2ncccc2C(F)(F)F)n1 [Flazasulfuron, 1-(4,6-dimethoxypyrimidin-2-yl)-3-(3-trifluoromethyl-2-pyridylsulfonyl)urea] | 58% | 6% | 63% | 73% | 30% | 78% | 53% | 23% | 1% | 30% | 78% | 23%
2 | COc1cnc(OC)n2nc(NS(=O)(=O)c3c(OCC(F)F)cccc3C(F)(F)F)nc12 [Penoxsulam] | 17% | 1% | 0% | 1% | 3% | 0% | 20% | 13% | 70% | 3% | 0% | 13%
